2 compounds from patent US9403855B2 (priority 2010, dated 2016) can be followed below.

Experiment [1] addresses T1, H274Y neuraminidase mutant from A/WSN/1933 (H1N1) (Influenza A virus, UniProt P03470, H259Y). Nature of the experiment: cell-based. The arrangement: species or system Influenza virus A/WSN/1933 (H1N1) H274Y mutant.
Experiment [2] concerns the target T1, H274Y neuraminidase mutant from A/WSN/1933 (H1N1). Description: biochemical. The arrangement: species or system Influenza virus A/WSN/1933 (H1N1) H274Y mutant.

In general, EC50 refers to the midpoint of the concentration-response curve. Read a high EC50 as a less potent agent. As usually defined, the IC50 is the point on the concentration scale where inhibition reaches its midpoint. Higher therefore signals weaker potency. As for `CC(=O)N[C@H]1[C@H]([C@H](O)[C@H](O)CO)OC(P(=O)(O)O)=C[C@@H]1N` [1a, (5-Acetamido-4-amino-6-(1,2,3-hydroxy)propyl-4,5,6-trihydropyran-2-yl) phosphonic acid], the EC50 in experiment [1] turned out to be 27 nM. In addition, the IC50 in experiment [2] amounted to 0.5 nM.

In experiment [1], `CC(=O)N[C@H]1[C@H]([C@H](O)[C@H](O)CO)OC(P(=O)(O)O)=C[C@@H]1NC(=N)N` [1b, (5-Acetamido-4-guanidino-6-(1,2,3-hydroxy)propyl-4,5,6-trihydropyran-2-yl) phosphonic acid] gave an EC50 of 26 nM. The compound further returned a half-maximal inhibitory concentration (IC50) in experiment [2] of 0.25 nM.
